Assay results from patent US9290488B2, “Azetidine-substituted quinoxalines as opioid receptor like-1 modulators” (priority 2011, dated 2016).

Experiment: not given
Conditions: male, Crj:CD (SD), pH 7.4

| SMILES | metabolic stability upon exposure to rat liver microsomes, times greater than counterpart d=2 compound [times] |
| --- | --- |
| O=C(O)[C@@H]1CCN1c1nc2ccccc2n([C@H]2C[C@H]3COC[C@@H](C2)N3[C@H]2C[C@@H]3CCC[C@@H](C3)C2)c1=O [C2a(ii)] | 2.6 |

Experiment: In vitro metabolic stability, rat liver microsomes
Conditions: % of compound remaining after 30 min incubation at 37° C., 2 μM, 0.5 mg/mL rat liver microsomes

| SMILES | Metabolic Stability (%) Rat [%] |
| --- | --- |
| CC[C@@H]1C[C@@H]2C[C@H](C1)C[C@@H](N1[C@@H]3CCC[C@H]1C[C@@H](n1c(=O)c(N4CC[C@H]4C(=O)O)nc4ccccc41)C3)C2 [B20a(ii)] | 84 |
| O=C(O)[C@@H]1CCN1c1nc2ccccc2n([C@H]2C[C@H]3COC[C@@H](C2)N3[C@H]2C[C@@H]3CCC[C@@H](C3)C2)c1=O [C2a(ii)] | 86 |
| CC12C[C@H]3C[C@@H](N4[C@@H]5COC[C@H]4C[C@@H](n4c(=O)c(N6CC[C@H]6C(=O)O)nc6ccccc64)C5)C[C@@H]1C[C@@H]2C3 [C20a(ii)] | 62 |
| O=C(O)[C@@H]1CCCN1c1nc2ccccc2n([C@H]2C[C@H]3CCC[C@@H](C2)N3[C@H]2C[C@@H]3CCC[C@@H](C3)C2)c1=O [CC01, reference compound] | 100 |
| CC12C[C@H]3C[C@@H](N4[C@@H]5CCC[C@H]4C[C@@H](n4c(=O)c(N6CCC[C@H]6C(=O)O)nc6ccccc64)C5)C[C@@H]1C[C@@H]2C3 [CC02, reference compound] | 97 |
| O=C(O)[C@@H]1CCCN1c1nc2ccccc2n([C@H]2C[C@H]3COC[C@@H](C2)N3[C@H]2C[C@@H]3CCC[C@@H](CC3)C2)c1=O [CC03, reference compound] | 33 |
| CC12C[C@H]3C[C@@H](N4[C@@H]5COC[C@H]4C[C@@H](n4c(=O)c(N6CCC[C@H]6C(=O)O)nc6ccccc64)C5)C[C@@H]1C[C@@H]2C3 [CC04, reference compound] | 14 |

Same assay, conditions: ratio d=1 compound / d=2 counterpart, rat liver microsomes

| SMILES | metabolic stability upon exposure to rat liver microsomes, times greater than counterpart d=2 compound |
| --- | --- |
| CC12C[C@H]3C[C@@H](N4[C@@H]5COC[C@H]4C[C@@H](n4c(=O)c(N6CC[C@H]6C(=O)O)nc6ccccc64)C5)C[C@@H]1C[C@@H]2C3 [C20a(ii)] | over 4.4 times |

Experiment: In vitro metabolic stability, human liver microsomes
Conditions: % of compound remaining after 30 min incubation at 37° C., 2 μM, 0.5 mg/mL human liver microsomes

| SMILES | Metabolic Stability (%) Human [%] |
| --- | --- |
| CC[C@@H]1C[C@@H]2C[C@H](C1)C[C@@H](N1[C@@H]3CCC[C@H]1C[C@@H](n1c(=O)c(N4CC[C@H]4C(=O)O)nc4ccccc41)C3)C2 [B20a(ii)] | 70 |
| O=C(O)[C@@H]1CCN1c1nc2ccccc2n([C@H]2C[C@H]3COC[C@@H](C2)N3[C@H]2C[C@@H]3CCC[C@@H](C3)C2)c1=O [C2a(ii)] | 67 |
| CC12C[C@H]3C[C@@H](N4[C@@H]5COC[C@H]4C[C@@H](n4c(=O)c(N6CC[C@H]6C(=O)O)nc6ccccc64)C5)C[C@@H]1C[C@@H]2C3 [C20a(ii)] | 6.5 |
| CC12C[C@H]3C[C@@H](N4[C@@H]5CCC[C@H]4C[C@@H](n4c(=O)c(N6CCC[C@H]6C(=O)O)nc6ccccc64)C5)C[C@@H]1C[C@@H]2C3 [CC02, reference compound] | 58 |
| O=C(O)[C@@H]1CCCN1c1nc2ccccc2n([C@H]2C[C@H]3COC[C@@H](C2)N3[C@H]2C[C@@H]3CCC[C@@H](CC3)C2)c1=O [CC03, reference compound] | 60 |
| CC12C[C@H]3C[C@@H](N4[C@@H]5COC[C@H]4C[C@@H](n4c(=O)c(N6CCC[C@H]6C(=O)O)nc6ccccc64)C5)C[C@@H]1C[C@@H]2C3 [CC04, reference compound] | 21 |

Experiment: In vitro assay of free unbound compound (equilibrium dialysis of rat serum)
Conditions: rat serum, 2 μg/mL, 24 h equilibrium dialysis at 37° C. against PBS

| SMILES | Free Unbound Drug Fraction (%) |
| --- | --- |
| CC[C@@H]1C[C@@H]2C[C@H](C1)C[C@@H](N1[C@@H]3CCC[C@H]1C[C@@H](n1c(=O)c(N4CC[C@H]4C(=O)O)nc4ccccc41)C3)C2 [B20a(ii)] | 3.3 |
| CC12C[C@H]3C[C@@H](N4[C@@H]5CCC[C@H]4C[C@@H](n4c(=O)c(N6CCC[C@H]6C(=O)O)nc6ccccc64)C5)C[C@@H]1C[C@@H]2C3 [CC02, reference compound] | 1.2 |

Same assay, conditions: ratio B20a(ii) / CC02, rat serum

| SMILES | free unbound drug fraction, times greater than counterpart d=2 compound |
| --- | --- |
| CC[C@@H]1C[C@@H]2C[C@H](C1)C[C@@H](N1[C@@H]3CCC[C@H]1C[C@@H](n1c(=O)c(N4CC[C@H]4C(=O)O)nc4ccccc41)C3)C2 [B20a(ii)] | over 2.7 times |
